Like-named read-outs stand apart in the source and are kept apart here.

In data set [1] the test system is normal tissues. Conditions: reported; cited from earlier work.
For data set [2], the system named is liver. Conditions: normal liver; reported [26, 27, 39]; cited from earlier work.
The conditions of data set [3]: in vivo, cited from earlier work.
The conditions of data set [4]: value used in Example 2 dose relation; cited from earlier work.
For data set [5], the system named is brain tumour cells. Conditions: brain tumour cells / brain tumours; reported; cited from earlier work.
Data set [6] deals with liver tumours. Conditions: reported [26, 27, 39]; cited from earlier work.
The conditions of data set [7]: in vivo; cited from earlier work.
The test system of data set [8] is T98G (JCRB9041, human glioblastoma multiforme) cell lines. The experiment in a line: Example 3 T98G cell proliferation (Resazurin/alamarBlue) after carbon or helium ion beam irradiation with neutron capture agents. The class given is cell-based. Conditions: 500 μM; for Cell proliferation: 24 h incubation prior to irradiation, up to 168 hours, vs flasks without compound; for radiosensitisation: carbon and helium ion beams. On the procedure:
The approach of the aforementioned embodiments was tested experimentally. A series of proof-of concept experiments were performed at Japan's HIMAC facility, to quantify the effective increase in biological dose which can be achieved in vitro. Cultured T98-G cancer cells adhered to the inner surface of T25 cell culture flasks were irradiated in carbon and helium ion beams, with and without the presence of realistic concentrations of neutron capture agents.
Three frozen vials of T98G (JCRB9041, human glioblastoma multiforme) cell lines were purchased from the National Institutes of Biomedical Innovation, Health and Nutrition, JCRB Cell Bank and used throughout the experiments.
Prior to the start of the experiments, the cells were revived and passaged twice prior to seeding 160 T25 flasks, with 5 mL of complete growth medium (DMEM+10% FBS). Flasks were incubated at 37±1° C. in an atmosphere of 5±1% CO2.
The experiments utilised ^12C and ^4He beams with 60 mm Spread Out Bragg Peak (SOBP60) spectra, and an approximate dose rate of 1 Gy/min. Cell viability was measured as a function of ion beam dose in cultured T98-G human glioblastoma cells, with and without the presence of two neutron capture agents, ^10B enriched 4-borono-L-phenylalanine (^10B-BPA) and 2,2′,2″-(10-(4-(((triphenylphosphonio)methyl)benzyl)-1,4,7,10-tetraazacyclododecane-1,4,7-triyl)triacetatogadolinium(III) trifluoroacetate (157Gd-DOTA-TPP salt complex).
A set of 300×300×10 mm^3 PMMA slabs were used in conjunction with a PMMA receptacle for holding two flasks. With this arrangement, the flasks containing the cell cultures were positioned inside a cubic 300×300×300 mm^3 PMMA phantom in a plane normal to the incident beam, at a depth corresponding to the midpoint of the SOBP60 as illustrated schematically in FIG. 13. The neutron fluence predicted via Monte Carlo simulation in Example 2 is overlayed on this figure for illustrative purposes. The ion beams were ^12C and ^4He beams with dimensions of 100×100 mm^2 (width×height) and SOBP60 energy spectra with mean energies of 290 MeV/u and 150 MeV/u, respectively (corresponding to SOBP depth ranges of approximately 8 to 14 cm in PMMA).
The irradiation campaign was conducted on four consecutive nights (carbon ion beam irradiations were conducted on the first and third nights, while helium ion beam irradiations were performed on the second and fourth night) at the HIMAC biological beamline. Forty flasks were irradiated during each night, at 80% to 90% confluence (corresponding to ˜3.75×10^5 cells per flask). Twenty-four hours prior to each irradiation, 10 flasks were incubated with 500 μM of ^10B-BPA, while a second set of 10 flasks were incubated with 500 μM of ^157Gd-DOTA-TPP salt complex. The remaining 20 flasks were used as control.
On the night of irradiation, the beam was calibrated for dose rate and dose-depth deposition and the dose-rate at the centre of the Bragg peak (corresponding to the location of the cells) was measured with an ionisation chamber. Immediately prior to irradiation, flasks were filled with a complete DMEM media (˜30 mL per flask). Flasks were irradiated in pairs, with flasks containing the neutron capture agents irradiated together, followed by corresponding control flasks (containing no neutron capture agent). Ten different dose values were used with each ion beam: 0, 0.9, 1.8, 2.3, 2.7, 3.2, 3.6, 4.1, 4.6, and 7.3 Gy for helium, and 0, 0.6, 1.3, 1.6, 1.9, 2.2, 2.5, 2.8, 3.1 and 5 Gy for carbon.
After irradiation, the medium was aseptically removed from the irradiated flasks. Cells were washed with 5 mL of DPBS which was removed and discarded. Cells were then trypsinised, detached from the flasks and resuspended in completed growth medium. Cell count and viability was recorded.
Sixteen 96-well plates were populated each night, each well containing approximately 375 cells, and each set of three wells corresponding to one flask. […]
In general terms: The colour change of resazurin is a common sign of viable cells or microbes.

Data set [9] relates to GBM (in vitro). Conditions: cited from earlier work.
Data set [10] in a line: Example 2 Monte Carlo simulation and treatment plan, neutron capture dose enhancement in PMMA target. Conditions: based on photon activated therapy studies with the same agent, corrected for expected Auger electron production. On the procedure: In a further example, a similar set of simulations was conducted. Significance was arbitrarily defined as an average 10% increase in photon-equivalent dose within a tumour resulting from the administration of a non-toxic bolus of neutron-capture agent (though it is envisaged that the method of this embodiment can be used with any desired dose increase factor). To do so, the concentration of neutron capture agent required to provide a 10% increase in effective photon-equivalent dose is determined for a simple simulated therapeutic proton/heavy ion treatment plan, and this is compared with concentrations reported in the literature.
The first step is to evaluate the neutron fluence resulting from pencil-beam irradiation of a point within a target volume. […] Dose and neutron fluence distributions were recorded for each simulation; corresponding distributions at energies in between these were also estimated by interpolating between the distributions obtained at these energies. […] The primary particle fluence at each energy was then weighted such that an approximately flat biological effective dose (BED) was delivered to a defined treatment volume by the ion beam; two 50 mm cubic volumes were evaluated, one centred at a depth of 125 mm and a second centred at a depth of 165 mm. […]

Data set [11] has as its system T98G (glioblastoma, in vitro). Conditions: cited from earlier work.
Data set [12] concerns glioblastoma cell nuclei. Conditions: cited from earlier work.
The conditions of data set [13]: in vivo; cited from earlier work. The source holds these as a separate data set.
For data set [14] the following is noted: rat, in vivo; cited from earlier work.

As to `N[C@@H](Cc1ccc([10B](O)O)cc1)C(=O)O` [BPA, ^10B-4-borono-L-phenylalanine], the CBE in data set [1] is listed as 0.9-1.3; in data set [5], 3.6-3.8. For the same molecule, in data set [2], the “CBE, liver” value was 4.25. The “Concentration (PPM)” value in data set [3] (iv) is recorded as 30 ± 12 PPM. Besides, the “Concentration ratio (tumour to healthy tissue)” value in data set [3] (iv) is 5:1 ^. Moreover, the “highest BPA concentration reported in the literature” value in data set [3] is given as 125 ppm. For the same molecule, the “tumour to healthy tissue concentration ratio” value in data set [3] is given as 5:1-8:1. For the same molecule, the “compound biological effectiveness CBE” value in [4] is given as 3.8. Besides, the “CBE, tumour” value in [6] is recorded as 9.94. For the same molecule, the “concentration ratio (tumour:normal tissue)” value in data set [7] is recorded as 2.8. Further, the Cell proliferation entry in data set [8] (carbon beam 0 to 5 Gy) and in data set [8] (helium beam) was “substantially reduced” throughout. Further, the radiosensitisation result in data set [8] is “clear and substantial radiosensitisation”.
On to `O=C([O-])CN1CCN(CC(=O)[O-])CCN(CC(=O)O)CCN(CC(=O)[O-])CC1.[Gd+3]` [Gd-DOTA], for which, in data set [9], the “Concentration (ppM)” value was 140 (1 h) ppM and the “accumulation within the cell nucleus” value is “neither accumulates to significant concentration”.
Turning to `O=C([O-])CN(CCN(CC(=O)[O-])CC(=O)O)CCN(CC(=O)[O-])CC(=O)O.[Gd+3]` [Gd-DTPA], the “accumulation within the cell nucleus” value in data set [9] (reported [40]) is recorded as “neither accumulates to significant concentration”.
Turning to `O=C([O-])C(F)(F)F.O=C([O-])CN1CCN(CC(=O)[O-])CCN(Cc2ccc(C[P+](c3ccccc3)(c3ccccc3)c3ccccc3)cc2)CCN(CC(=O)[O-])CC1.[Gd+3]` [^157Gd-DOTA-TPP salt complex], the “compound biological effectiveness CBE” value in [10] is recorded as “≈ 40”. Also, the Cell proliferation result in data set [8] (carbon beam 0 to 5 Gy) and in data set [8] (helium beam) was “substantially reduced” each time. For the same molecule, in data set [8], the radiosensitisation entry was “clear and substantial radiosensitisation”.
With `[Gd]` [gadolinium], the “values previously published, concentration” value in data set [11] was “up to 3000 ppm”.
Consider `CC(=O)[O-].CC(=O)[O-].CCc1c(CC)c2cc3nc(cnc4cc(OCCOCCOCCOC)c(OCCOCCOCCOC)cc4ncc4nc(cc1[n-]2)C(CCCO)=C4C)C(C)=C3CCCO.O.[Gd+3]` [motexafin-gadolinium], for which, in data set [12], the “prolonged retention of gadolinium in vitro” value is listed as “up to 2 months” and the “uptake in glioblastoma cell nuclei” value was 90%. Moreover, the “tumour to healthy tissue uptake ratio” value in [13] is 70:1.
Regarding boron, the “values previously published, tumour concentration” value in data set [14] was “up to 231 ppm”.
For the molecule “sodium mercaptoundecahydro-closo-dodecaborate [BSH]”, the “CBE, liver” value in data set [2] is 0.94. For the same molecule, the “tumour to healthy tissue concentration ratio” value in [3] is on record as 1.2-3.5. In addition, the “CBE, tumour” value in data set [6] is 4.22. For the same molecule, the “concentration ratio (tumour:normal tissue)” value in data set [7] was 0.3.
